Test results published in patent publication US12569500B2, “Combination comprising tricycle compound and use thereof in preparation of medicament for treating HBV” (FUJIAN AKEYLINK BIOTECHNOLOGY CO., LTD., priority 2020, dated 2026).

Columns and labels:
HBsAg = assay: Single agent anti-HBV activity, HBsAg in supernatant by ELISA, HepG2.2.15 cells; assay type: cell-based; settings: Hepatitis B virus, HepG2.2.15, 192 h, read-out: HBsAg EC50
Protocol: Cell line: HepG2.2.15 cells are constructed and provided by WuXi AppTec. The cell culture medium is DMEM/F12 medium supplemented with 2% fetal bovine serum, 2 mM glutamine, 1×non-essential amino acids, 100 U/mL penicillin and 100 µg/mL streptomycin.
2.1.1 On the first day, HepG2.2.15 cells were seeded into a 96-well cell culture plate at a density of 60,000 cells/well, and then the cells were cultured overnight at 5% CO2 and 37° C. On the second day, the compound 1 and the compound of formula (IIb) and the compound of formula (IIIb) were diluted and added to a 96-well plate. Each combination was a three-fold plate. The cells were cultured under 5% CO2 and 37° C. for 3 days. On the 5th day, a new culture medium containing the compound was replaced, and the supernatant was collected on the 8th day. The HBsAg in the supernatant was detected by ELISA, and the DNA in the supernatant was extracted at the same time, and the content of HBV DNA in the supernatant was detected by quantitative PCR. After collecting the cell supernatant, add CellTiter-Glo to detect cell viability.

HBV = assay: AAV/HBV mouse model, anti-hepatitis B virus efficacy in vivo (serum/liver HBV DNA, serum HBV RNA); set-up: species or system C57BL/6 mice
Protocol: 5-week-old male C57BL/6 mice without specific pathogen level, purchased from Shanghai Slack Laboratory Animal Co., Ltd.
Compound 1 was added with an appropriate amount of the above-mentioned solvent, and a uniform particle suspension was obtained after vortexing, and the preparation concentration was 1.0, 3.0 and 10.0 mg/mL. Store at 4° C. until used. Compound 1 is calculated according to the salt coefficient of 1.0 and the purity of 100%.
Tenofovir disoproxil (TDF) was purchased from Shanghai Panhong Chemical Technology Co., Ltd. Weigh an appropriate amount of TDF and dissolve it in physiological saline to prepare a 1 mg/mL mother liquor, vortex until TDF is fully dissolved, dispense into 1 mL size and store at −20° C. Take 1 mL of mother liquor before each administration, and dilute the working solution 10 times to 0.1 mg/mL with normal saline for the day's administration.
rAAV8-1.3HBV (Type D, ayw) was purchased from Beijing Wujiahe Institute of Molecular Medicine, batch number x2018032301, 1×10^12 viral genome (v.g.)/mL. Dilute with sterile PBS to 5×10^11 v.g./mL before the experiment. Each mouse was injected with 200 μL, that is, each mouse was injected with 1×10^11 v.g.
AAV/HBV injection: rAAV8-1.3HBV is pre-prepared with sterile PBS to a concentration of 1×10^11 v.g./200 μL solution before injection.
Infection level detection: On days 14 and 21 after virus injection, about 120 μL of blood was collected from the submandibular vein for all infected mice to collect serum. After the whole blood was incubated in a 37° C. incubator for 30 minutes, the blood was centrifuged at 13,200×g for 3 minutes at 4° C. to collect about 30 μL of serum. The serum is stored at −80° C. for the detection of HBV DNA, HBeAg and HBsAg.
Grouping: On the 28th day after virus injection, according to the levels of HBV DNA, HBsAg and HBeAg in serum samples on the 14th and 21st days after virus injection, and the body weight of the mice.
Definition of experimental days: the day of the first dosing is set to day 0 of the experiment.
Serum sample preparation: After the blood sample was incubated at 37° C. for about 30 minutes, centrifuged at 4° C., 13,200 g for 3 minutes, and the separated supernatant was quickly frozen in dry ice.
Blood was collected from the heart to collect serum for HBV DNA detection and detection of HBV RNA levels in groups 1 and 4.
3. Quantitative PCR detection of HBV DNA content in mouse serum and liver:
Data analysis: The data is expressed as the average value standard error of each group of samples. Unless otherwise specified, groups 1-6: n=8. Use Student's t test for statistical analysis.

[1] = 100 mpk BID, after 28 days of dosage, vs solvent group

Cc1cc2n(c1)S(=O)(=O)c1ccc(C(=O)NCC[C@H]3COCCO3)cc1NC2=O [Compound 1]
EC50 (HBsAg): > 1 µM | serum HBV DNA content (HBV; 10 mpk BID (Group 2), after 7 days of dosage): remained stable after 7 days of dosage | HBV DNA content in the liver (HBV; 10 mpk BID, after 28 days of dosage, vs solvent group): decreased | serum HBV DNA content (HBV; 30 mpk BID, after 7 days of dosage): remained stable after 7 days of dosage | HBV DNA content in the liver (HBV; 30 mpk BID, after 28 days of dosage, vs solvent group): decreased | serum HBV DNA content (HBV; 100 mpk BID, 7-28 days after dosage, vs solvent group, p<0.01): significantly lower than that in the solvent group | HBV DNA content in the liver (HBV; [1]): decreased | HBV RNA content in the serum (HBV; [1]): decreased | mouse serum and liver HBV DNA (HBV; compared with the solvent control group): significantly reduced | serum HBV DNA content, trend over doses (HBV; low (10 mpk), medium (30 mpk), high (100 mpk) dose groups BID vs solvent group, after 3 days of dosage): dose-dependent trend
